Counter-ions that a name gives are not always drawn.

Consider 25 molecules from patent US10851053B2, “Chemical compounds” (GlaxoSmithKline Intellectual Property Development Limited, priority 2016, dated 2020).

One assay relates to ATF4 translation (ATF4 pathway), SH-SY5Y-ATF4-NanoLuc cells. In words: ATF4 cell based assay (ATF4 5'-UTR NanoLuc luciferase reporter, Thapsigargin induced cellular stress). The note with it: SH-SY5Y-ATF4-NanoLuc cells challenged with Thapsigargin for 14-18 hours; average of two or more experimental runs; hydrochloride; read-out: average ATF4 pathway inhibitory activity (IC50). From the text:
The ATF4 reporter assay measures the effect of Thapsigargin induced cellular stress on ATF4 expression. For this reporter assay, a stable cell line was created by transfecting SH-SY5Y cells with a plasmid containing the NanoLuc® luciferase gene fused to the 5′-UTR of ATF4, under the control of the CMV promoter. The ATF4 5′-UTR contains two open reading frames which mediate the cellular stress-dependent translation of the reporter gene. Clones stably expressing the reporter construct were isolated and selected based on the luminescence response to thapsigargin and inhibition of this signal by test compounds. Briefly, SH-SY5Y-ATF4-NanoLuc cells were challenged with Thapsigargin for 14-18 hours to determine the stress effect with or without test compounds.
Cells were propagated in growth media consisting of 90% DMEM F12 (InVitrogen #11320-033), 10% Fetal Bovine Serum (Gibco #10438-026), 5 mM Glutamax (Gibco #35050-061), 5 mM Hepes, (Gibco #15630-080), and 0.5 mg/ml Geneticin (Gibco #10131-027). Cells were prepared for the assay by removing all media from cells, washing the plated cells with phosphate buffered saline, and detached by adding a solution comprised of 10% Tryple express solution (InVitrogen12604-021) and 90% enzyme-free cell dissociation buffer HANKS base (Gibco 13150-016). The trypsin was deactivated by adding assay media comprised of 90% phenol-red free DMEM F12 (InVitrogen, 11039), 10% Fetal Bovine Serum (Gibco #10438-026), (5 mM Glutamax (Gibco #35050-061), 5 mM Hepes, (Gibco #15630-080), and 0.5 mg/ml Geneticin (Gibco #10131-027). Suspended cells were spun down at 300 g for 5 min, the supernatant was removed and the cell pellet was suspended in warm media (30-37° C.) comprised as above at (1e6 cell/ml).
Assay plates were prepared by adding 250 nL of compound stock solution in 100% DMSO to each well, followed by dispensing 20 microliters/well cell suspension to deliver 15-20 k cell/well. Cells were incubated for 1 hour at 37° C. Then, 5 μL of 1.5 μM or 1 μM of Thapsigargin (final concentration: 200-300 nM) was added to each well of cells. Assay plates containing cells were incubated for 14-18 hours at 37° C.
The measurement of luciferase produced by the ATF4 constructs was measured as follows. Aliquots of the Nano-Glo reagent (Nano-Glo® Luciferase Assay Substrate, Promega, N113, Nano-Glo® Luciferase Assay Buffer, Promega, N112 (parts of Nano-Glo® Luciferase Assay System, N1150) were brought to room temperature, the substrate and buffer were mixed according to manufacturer's instructions. The cell plates were equilibrated to room temperature. 25 microliters/well of the mixed Nano-Glo reagent were dispensed into assay wells and pulse spun to settle contents and the plate was sealed with film. The plates were incubated at room temperature for 1 hour before detecting luminescence on an Envision plate reader.
Compounds of the invention are tested for activity against ATF4 translation in the above assay.
A general note: A reporter such as luciferase makes a cellular process visible.
As for `O=C(COc1ccc(Cl)nc1)N[C@H]1[C@@H]2CN(CCCOc3ccc(Cl)cc3)C[C@@H]21` [Example 71, N-((1R,5S,6s)-3-(3-(4-chlorophenoxy)propyl)-3-azabicyclo[3.1.0]hexan-6-yl)-2-((6-chloropyridin-3-yl)oxy)acetamide hydrochloride], the half-maximal inhibitory concentration (IC50) stood at 136 nM.

The assay is the same for the next values; noted with them: SH-SY5Y-ATF4-NanoLuc cells challenged with Thapsigargin for 14-18 hours; average of two or more experimental runs; read-out: average ATF4 pathway inhibitory activity (IC50).
Regarding `O=C(COc1ccc(Cl)c(Cl)c1)NCC1CCN(CCCOc2ccc(Cl)cc2)C1` (stereo not shown) [Example 44, N-((1-(3-(4-chlorophenoxy)propyl)pyrrolidin-3-yl)methyl)-2-(3,4-dichlorophenoxy)acetamide], the IC50 was under 100 nM.

Take `Cc1cc(OCCCN2CCC(CNC(=O)COc3ccc(Cl)cc3)C2)ccc1Cl` (stereo not shown) [Example 57, N-((1-(3-(4-chloro-3-methylphenoxy)propyl)pyrrolidin-3-yl)methyl)-2-(4-chlorophenoxy)acetamide]: the 50% inhibitory concentration (IC50) is under 100 nM.

As for `CC1(CNC(=O)COc2ccc(Cl)cc2)CCN(C(=O)COc2ccc(Cl)cc2)C1` (stereo not shown) [Example 17, 2-(4-chlorophenoxy)-N-((1-(2-(4-chlorophenoxy)acetyl)-3-methylpyrrolidin-3-yl)methyl)acetamide], the IC50 fell in the range of 1000 to 10000 nM.

For the molecule `O=C(COc1ccc(Cl)cc1)NCC1CCN(CCCOc2ccc(Cl)cn2)C1` (stereo not shown) [Example 69, 2-(4-chlorophenoxy)-N-((1-(3-((5-chloropyridin-2-yl)oxy)propyl)pyrrolidin-3-yl)methyl)acetamide], the concentration for half-maximal inhibition (IC50) is under 100 nM.

With `Cc1cc(OCC(=O)NCC2CCN(CCCOc3ccc(Cl)cc3)C2)ccc1Cl` (stereo not shown) [Example 47, 2-(4-chloro-3-methylphenoxy)-N-((1-(3-(4-chlorophenoxy)propyl)pyrrolidin-3-yl)methyl)acetamide], the concentration for half-maximal inhibition (IC50) is under 100 nM.

`O=C(COc1ccc(Cl)cc1)N[C@H]1[C@@H]2CN(CCCOc3ccc(Cl)cc3)C[C@@H]21` [Example 28, 2-(4-chlorophenoxy)-N-((1R,5S,6s)-3-(3-(4-chlorophenoxy)propyl)-3-azabicyclo[3.1.0]hexan-6-yl)acetamide]: the half-inhibitory concentration (IC50) was under 100 nM.

Regarding `O=C(COc1ccc(Cl)cc1)NCC1CCN(CCOc2ccc(Cl)nc2)C1` (stereo not shown) [Example 13, 2-(4-chlorophenoxy)-N-((1-(2-((6-chloropyridin-3-yl)oxy)ethyl)pyrrolidin-3-yl)methyl)acetamide], the half-inhibitory concentration (IC50) is 1000 to 10000 nM.

In the case of `O=C(COc1ccc(Cl)cc1)NCC1CCN(C(=O)N2CCc3cc(Cl)ccc3C2)C1` (stereo not shown) [Example 24, N-((1-(6-chloro-1,2,3,4-tetrahydroisoquinoline-2-carbonyl)pyrrolidin-3-yl)methyl)-2-(4-chlorophenoxy)acetamide], the IC50 was in the range of 101 to 1000 nM.

For the molecule `O=C(COc1ccc(Cl)cc1)NCC1CCN(CCCOc2cccc(Cl)c2)C1` (stereo not shown) [Example 50, 2-(4-chlorophenoxy)-N-((1-(3-(3-chlorophenoxy)propyl)pyrrolidin-3-yl)methyl)acetamide], the 50% inhibitory concentration (IC50) fell in the range of 101 to 1000 nM.

For the molecule `O=C(COc1ccc(Cl)cc1)N[C@H]1[C@@H]2CN(CCCOc3ccc(Cl)cn3)C[C@@H]21` [Example 53, 2-(4-chlorophenoxy)-N-((1R,5S,6s)-3-(3-((5-chloropyridin-2-yl)oxy)propyl)-3-azabicyclo[3.1.0]hexan-6-yl)acetamide], the half-inhibitory concentration (IC50) lay in the range of 101 to 1000 nM.

Regarding `O=C(NCC1CCN(C(=O)COc2ccc(Cl)cc2)C1)C1Cc2cc(Cl)ccc2O1` (stereo not shown) [Example 18, 5-chloro-N-((1-(2-(4-chlorophenoxy)acetyl)pyrrolidin-3-yl)methyl)-2,3-dihydrobenzofuran-2-carboxamide], the half-maximal inhibitory concentration (IC50) fell in the range of 101 to 1000 nM.

For `O=C(COc1ccc(Cl)cc1)NCC1CN(CCCOc2ccc(Cl)cc2)CC1O` (stereo not shown) [Example 80, 2-(4-chlorophenoxy)-N-((1-(3-(4-chlorophenoxy)propyl)-4-hydroxypyrrolidin-3-yl)methyl)acetamide], the IC50 is under 100 nM.

As for `O=C(COc1ccc(Cl)cc1)N[C@H]1[C@@H]2CN(CC(F)COc3ccc(Cl)cc3)C[C@@H]21` (stereo partly drawn) [Example 78, 2-(4-chlorophenoxy)-N-((1R,5S,6s)-3-(3-(4-chlorophenoxy)-2-fluoropropyl)-3-azabicyclo[3.1.0]hexan-6-yl)acetamide], the IC50 is under 100 nM.

For `O=C(COc1ccc(Cl)nc1)NCC1CCN(C(=O)COc2ccc(Cl)cc2)C1` (stereo not shown) [Example 19, N-((1-(2-(4-chlorophenoxy)acetyl)pyrrolidin-3-yl)methyl)-2-((6-chloropyridin-3-yl)oxy)acetamide], the half-maximal inhibitory concentration (IC50) lay within 1000 to 10000 nM.

Regarding `O=C(COc1ccc(Cl)cc1)NCC1CCN(C(=O)C2CC2c2ccc(Cl)cc2)C1` (stereo not shown) [Example 40, 2-(4-chlorophenoxy)-N-((1-(2-(4-chlorophenyl)cyclopropanecarbonyl)pyrrolidin-3-yl)methyl)acetamide], the IC50 is under 100 nM.

As to `O=C(COc1ccc(Cl)cc1)NCC1CCN(C(=O)OCCc2ccc(Cl)cc2)C1` (stereo not shown) [Example 15, 4-chlorophenethyl 3-((2-(4-chlorophenoxy)acetamido)methyl)pyrrolidine-1-carboxylate], the IC50 was under 100 nM.

In the case of `O=C(COc1ccc(Cl)cc1)NCC1(F)CCN(C(=O)COc2ccc(Cl)cc2)C1` (stereo not shown) [Example 36, 2-(4-chlorophenoxy)-N-((1-(2-(4-chlorophenoxy)acetyl)-3-fluoropyrrolidin-3-yl)methyl)acetamide], the half-maximal inhibitory concentration (IC50) lay in the range of 101 to 1000 nM.

As to `O=C(COc1ccc(Cl)cc1)NCC1CCN(C(=O)COc2ccc(Cl)nc2)C1` (single isomer, unassigned) [Example 11, 2-(4-chlorophenoxy)-N-((1-(2-((6-chloropyridin-3-yl)oxy)acetyl)pyrrolidin-3-yl)methyl)acetamide], the IC50 lay within 1000 to 10000 nM.

For `O=C(COc1ccc(Cl)cn1)N[C@H]1[C@@H]2CN(CCCOc3ccc(Cl)cc3)C[C@@H]21` [Example 52, N-((1R,5S,6s)-3-(3-(4-chlorophenoxy)propyl)-3-azabicyclo[3.1.0]hexan-6-yl)-2-((5-chloropyridin-2-yl)oxy)acetamide], the IC50 was under 100 nM.

`O=C(COc1ccc(Cl)cc1)NC[C@@H]1CCN(CCCOc2ccc(Cl)cc2)C1` [Example 70, (S)-2-(4-chlorophenoxy)-N-((1-(3-(4-chlorophenoxy)propyl)pyrrolidin-3-yl)methyl)acetamide]: the concentration for half-maximal inhibition (IC50) was in the range of 101 to 1000 nM.

For `CN(Cc1ccc(Cl)cc1)C(=O)N1CCC(CNC(=O)COc2ccc(Cl)cc2)C1` (stereo not shown) [Example 79, N-(4-chlorobenzyl)-3-((2-(4-chlorophenoxy)acetamido)methyl)-N-methylpyrrolidine-1-carboxamide], the half-inhibitory concentration (IC50) was under 100 nM.

As for `O=C(COc1ccc(Cl)cc1)NCC1CCN(CCCOc2ccc(Cl)cc2Cl)C1` (stereo not shown) [Example 66, 2-(4-chlorophenoxy)-N-((1-(3-(2,4-dichlorophenoxy)propyl)pyrrolidin-3-yl)methyl)acetamide], the 50% inhibitory concentration (IC50) was in the range of 101 to 1000 nM.

In the case of `O=C(COc1ccc(Cl)cn1)NCC1CCN(CCCOc2ccc(Cl)cc2)C1` (stereo not shown) [Example 56, N-((1-(3-(4-chlorophenoxy)propyl)pyrrolidin-3-yl)methyl)-2-((5-chloropyridin-2-yl)oxy)acetamide], the concentration for half-maximal inhibition (IC50) was 101 to 1000 nM.

The same assay, now with this note: read-out: average ATF4 pathway inhibitory activity (IC50).
Regarding `O=C(COc1ccc(Cl)cc1)NCC1CCN(CCOc2ccc(Cl)cc2)C1` (stereo not shown) [Example 2, 2-(4-chlorophenoxy)-N-((1-(2-(4-chlorophenoxy)ethyl)pyrrolidin-3-yl)methyl)acetamide], the IC50 is under 100 nM.

What is called IC50 is the midpoint of a concentration-inhibition curve.
